How the values were obtained:
Assay in all cases: biochemical
[1] = target: T1, panel of 374 wild-type kinases (Homo sapiens, UniProt O15075); conditions: read-out: % Enzyme Activity (relative to DMSO controls), DCAMKL1
T1 construct: purchased Reaction Biology Corporation
T1 sequence (O15075 1-740): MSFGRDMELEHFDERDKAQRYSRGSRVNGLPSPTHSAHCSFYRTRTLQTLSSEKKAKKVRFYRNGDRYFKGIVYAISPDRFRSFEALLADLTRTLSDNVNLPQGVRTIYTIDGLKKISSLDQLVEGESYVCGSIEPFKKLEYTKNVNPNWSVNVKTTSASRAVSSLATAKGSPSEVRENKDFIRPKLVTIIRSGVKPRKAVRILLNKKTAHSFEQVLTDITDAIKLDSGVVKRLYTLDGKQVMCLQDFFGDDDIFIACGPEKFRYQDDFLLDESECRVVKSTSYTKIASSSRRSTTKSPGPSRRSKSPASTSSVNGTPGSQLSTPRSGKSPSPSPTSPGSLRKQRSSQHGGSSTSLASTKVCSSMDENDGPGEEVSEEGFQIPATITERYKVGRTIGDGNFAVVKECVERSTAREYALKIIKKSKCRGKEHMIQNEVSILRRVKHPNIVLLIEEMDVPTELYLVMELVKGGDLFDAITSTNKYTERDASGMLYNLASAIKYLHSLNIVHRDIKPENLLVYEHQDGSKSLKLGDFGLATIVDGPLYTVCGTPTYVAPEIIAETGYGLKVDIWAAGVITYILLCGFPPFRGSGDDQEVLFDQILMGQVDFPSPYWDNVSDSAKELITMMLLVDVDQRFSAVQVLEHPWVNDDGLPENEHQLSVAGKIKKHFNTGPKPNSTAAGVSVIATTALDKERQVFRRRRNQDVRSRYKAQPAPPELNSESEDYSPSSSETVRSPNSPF

[2] = target: T2, panel of 374 wild-type kinases (Homo sapiens, UniProt O75116); conditions: read-out: % Enzyme Activity (relative to DMSO controls), kinase ROCK2
T2 construct: purchased Reaction Biology Corporation

[3] = target: T3, panel of 374 wild-type kinases (Homo sapiens, UniProt O75460); conditions: read-out: % Enzyme Activity (relative to DMSO controls), ERN1/IRE1
T3 construct: purchased Reaction Biology Corporation

[4] = target: T4, panel of 374 wild-type kinases (Homo sapiens, UniProt P22607); conditions: read-out: % Enzyme Activity (relative to DMSO controls), FGFR3
T4 construct: purchased Reaction Biology Corporation

[5] = target: T5, panel of 374 wild-type kinases (Homo sapiens, UniProt P23458); conditions: read-out: % Enzyme Activity (relative to DMSO controls), JAK1
T5 construct: purchased Reaction Biology Corporation

[6] = target: T6, panel of 374 wild-type kinases (Homo sapiens, UniProt P53350); conditions: read-out: % Enzyme Activity (relative to DMSO controls), kinase PLK1
T6 construct: purchased Reaction Biology Corporation

[7] = target: T7, panel of 374 wild-type kinases (Homo sapiens, UniProt P53671); conditions: read-out: % Enzyme Activity (relative to DMSO controls), LIMK2
T7 construct: purchased Reaction Biology Corporation

[8] = target: T8, panel of 374 wild-type kinases (Homo sapiens, UniProt P80192); conditions: read-out: % Enzyme Activity (relative to DMSO controls), MLK1/MAP3K9
T8 construct: purchased Reaction Biology Corporation

[9] = target: T9, panel of 374 wild-type kinases (Homo sapiens, UniProt Q16566); conditions: read-out: % Enzyme Activity (relative to DMSO controls), CAMK4
T9 construct: purchased Reaction Biology Corporation

[10] = target: T10, panel of 374 wild-type kinases (Homo sapiens, UniProt Q16832); conditions: read-out: % Enzyme Activity (relative to DMSO controls), DDR2
T10 construct: purchased Reaction Biology Corporation
T10 sequence (Q16832 22-855): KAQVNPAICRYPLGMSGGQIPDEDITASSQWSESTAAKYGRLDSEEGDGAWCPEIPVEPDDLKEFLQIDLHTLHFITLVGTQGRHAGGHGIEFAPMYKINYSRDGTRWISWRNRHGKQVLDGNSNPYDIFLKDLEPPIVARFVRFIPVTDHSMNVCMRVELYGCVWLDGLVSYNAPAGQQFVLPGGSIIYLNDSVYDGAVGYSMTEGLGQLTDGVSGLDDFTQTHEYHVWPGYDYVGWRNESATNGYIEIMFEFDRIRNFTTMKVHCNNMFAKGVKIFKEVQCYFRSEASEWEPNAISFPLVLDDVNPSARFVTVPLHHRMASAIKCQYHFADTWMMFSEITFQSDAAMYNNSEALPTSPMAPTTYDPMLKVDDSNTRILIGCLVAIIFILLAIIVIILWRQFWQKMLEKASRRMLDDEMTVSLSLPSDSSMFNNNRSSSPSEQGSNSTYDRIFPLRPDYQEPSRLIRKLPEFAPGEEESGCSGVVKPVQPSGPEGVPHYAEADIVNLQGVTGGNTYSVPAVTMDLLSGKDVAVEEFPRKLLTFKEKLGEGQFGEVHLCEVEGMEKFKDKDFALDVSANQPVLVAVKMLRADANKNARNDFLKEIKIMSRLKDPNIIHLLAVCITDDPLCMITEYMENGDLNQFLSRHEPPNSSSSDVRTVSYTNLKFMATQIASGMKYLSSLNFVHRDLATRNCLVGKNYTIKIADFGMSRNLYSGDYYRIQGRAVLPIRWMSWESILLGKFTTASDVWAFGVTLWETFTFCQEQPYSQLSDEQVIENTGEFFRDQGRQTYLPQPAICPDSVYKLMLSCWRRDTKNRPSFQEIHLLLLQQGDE

[11] = target: T11, panel of 374 wild-type kinases (Homo sapiens, UniProt Q96RG2); conditions: read-out: % Enzyme Activity (relative to DMSO controls), kinase PASK
T11 construct: purchased Reaction Biology Corporation

T3 sequence (O75460 19-977): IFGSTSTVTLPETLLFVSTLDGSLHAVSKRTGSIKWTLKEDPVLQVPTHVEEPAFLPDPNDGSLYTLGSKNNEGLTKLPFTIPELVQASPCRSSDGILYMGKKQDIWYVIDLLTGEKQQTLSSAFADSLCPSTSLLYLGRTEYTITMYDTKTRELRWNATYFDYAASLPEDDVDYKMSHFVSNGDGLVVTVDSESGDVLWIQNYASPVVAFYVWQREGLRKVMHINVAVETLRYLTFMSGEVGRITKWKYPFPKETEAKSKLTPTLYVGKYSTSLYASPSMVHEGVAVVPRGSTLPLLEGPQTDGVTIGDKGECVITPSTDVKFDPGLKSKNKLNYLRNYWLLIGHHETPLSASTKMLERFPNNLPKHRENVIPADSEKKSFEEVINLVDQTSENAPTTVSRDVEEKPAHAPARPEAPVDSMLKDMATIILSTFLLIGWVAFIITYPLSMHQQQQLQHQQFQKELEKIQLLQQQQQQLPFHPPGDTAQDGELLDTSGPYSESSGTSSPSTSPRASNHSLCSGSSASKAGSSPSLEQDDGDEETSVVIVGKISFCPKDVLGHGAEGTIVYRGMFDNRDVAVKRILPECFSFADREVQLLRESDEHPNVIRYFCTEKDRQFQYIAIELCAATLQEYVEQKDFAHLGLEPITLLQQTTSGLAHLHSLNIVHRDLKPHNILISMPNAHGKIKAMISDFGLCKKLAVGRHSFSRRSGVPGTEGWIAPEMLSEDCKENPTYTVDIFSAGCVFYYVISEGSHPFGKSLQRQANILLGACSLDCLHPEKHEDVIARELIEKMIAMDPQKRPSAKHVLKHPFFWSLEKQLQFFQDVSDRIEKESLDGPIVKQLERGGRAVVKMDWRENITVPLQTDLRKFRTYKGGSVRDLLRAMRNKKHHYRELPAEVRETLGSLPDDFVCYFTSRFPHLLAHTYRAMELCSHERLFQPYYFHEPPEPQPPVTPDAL
T9 sequence (Q16566 whole entry): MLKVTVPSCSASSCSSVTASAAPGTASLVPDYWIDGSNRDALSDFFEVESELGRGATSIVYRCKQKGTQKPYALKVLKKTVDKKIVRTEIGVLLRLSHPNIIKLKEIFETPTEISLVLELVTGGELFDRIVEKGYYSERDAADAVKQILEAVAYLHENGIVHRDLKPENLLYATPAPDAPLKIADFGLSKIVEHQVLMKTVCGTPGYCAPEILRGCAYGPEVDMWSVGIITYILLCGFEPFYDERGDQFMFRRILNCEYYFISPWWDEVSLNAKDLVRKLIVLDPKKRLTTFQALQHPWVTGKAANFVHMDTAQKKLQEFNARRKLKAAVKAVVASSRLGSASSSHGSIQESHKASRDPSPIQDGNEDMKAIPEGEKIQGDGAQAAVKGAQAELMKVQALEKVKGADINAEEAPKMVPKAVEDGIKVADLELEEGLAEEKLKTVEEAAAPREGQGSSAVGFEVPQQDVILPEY
T8 sequence (P80192 whole entry): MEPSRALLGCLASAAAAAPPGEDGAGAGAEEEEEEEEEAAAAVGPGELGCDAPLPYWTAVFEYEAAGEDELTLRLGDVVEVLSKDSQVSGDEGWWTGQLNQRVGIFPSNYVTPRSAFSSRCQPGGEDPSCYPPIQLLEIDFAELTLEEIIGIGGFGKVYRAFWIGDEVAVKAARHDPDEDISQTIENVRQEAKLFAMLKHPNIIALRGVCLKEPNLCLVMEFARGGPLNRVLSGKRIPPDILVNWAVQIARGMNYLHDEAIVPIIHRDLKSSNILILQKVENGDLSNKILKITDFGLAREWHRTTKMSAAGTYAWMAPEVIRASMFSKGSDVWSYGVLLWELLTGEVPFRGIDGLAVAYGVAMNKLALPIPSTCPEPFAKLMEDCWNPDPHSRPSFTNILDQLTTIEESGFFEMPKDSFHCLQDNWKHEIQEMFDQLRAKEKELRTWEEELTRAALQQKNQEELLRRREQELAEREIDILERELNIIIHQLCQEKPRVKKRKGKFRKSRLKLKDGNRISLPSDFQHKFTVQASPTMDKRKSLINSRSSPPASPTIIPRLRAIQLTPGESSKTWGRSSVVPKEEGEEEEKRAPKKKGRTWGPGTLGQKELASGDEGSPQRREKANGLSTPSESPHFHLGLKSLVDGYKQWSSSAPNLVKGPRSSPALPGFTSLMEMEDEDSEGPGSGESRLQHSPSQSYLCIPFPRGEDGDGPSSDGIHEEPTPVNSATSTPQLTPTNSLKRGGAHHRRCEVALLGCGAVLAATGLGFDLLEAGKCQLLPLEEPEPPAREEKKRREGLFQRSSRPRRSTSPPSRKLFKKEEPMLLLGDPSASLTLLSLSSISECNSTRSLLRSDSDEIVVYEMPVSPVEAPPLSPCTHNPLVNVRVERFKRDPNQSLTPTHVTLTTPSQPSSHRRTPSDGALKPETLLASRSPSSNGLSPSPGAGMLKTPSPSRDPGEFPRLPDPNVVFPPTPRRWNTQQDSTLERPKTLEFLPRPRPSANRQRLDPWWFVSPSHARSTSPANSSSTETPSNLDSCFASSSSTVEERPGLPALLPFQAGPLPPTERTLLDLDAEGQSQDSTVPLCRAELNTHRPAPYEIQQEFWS
T6 sequence (P53350 whole entry): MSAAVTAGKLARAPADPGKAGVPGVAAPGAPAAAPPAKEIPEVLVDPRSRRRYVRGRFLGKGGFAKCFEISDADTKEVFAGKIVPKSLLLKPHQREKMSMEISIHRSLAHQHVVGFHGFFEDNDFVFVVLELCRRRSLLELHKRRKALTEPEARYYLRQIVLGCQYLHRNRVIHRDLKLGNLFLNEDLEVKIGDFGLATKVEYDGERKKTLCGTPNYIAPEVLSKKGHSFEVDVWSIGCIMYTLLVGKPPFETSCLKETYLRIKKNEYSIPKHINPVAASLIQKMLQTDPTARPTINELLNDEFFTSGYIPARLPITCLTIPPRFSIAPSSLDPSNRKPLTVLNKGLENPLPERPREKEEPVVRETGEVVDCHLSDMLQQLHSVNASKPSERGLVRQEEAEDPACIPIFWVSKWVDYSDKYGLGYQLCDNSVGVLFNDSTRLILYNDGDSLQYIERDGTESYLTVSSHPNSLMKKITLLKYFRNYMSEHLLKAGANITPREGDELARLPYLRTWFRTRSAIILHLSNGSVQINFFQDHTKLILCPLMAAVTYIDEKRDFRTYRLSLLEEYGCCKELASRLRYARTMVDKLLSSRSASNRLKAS
T2 sequence (O75116 whole entry): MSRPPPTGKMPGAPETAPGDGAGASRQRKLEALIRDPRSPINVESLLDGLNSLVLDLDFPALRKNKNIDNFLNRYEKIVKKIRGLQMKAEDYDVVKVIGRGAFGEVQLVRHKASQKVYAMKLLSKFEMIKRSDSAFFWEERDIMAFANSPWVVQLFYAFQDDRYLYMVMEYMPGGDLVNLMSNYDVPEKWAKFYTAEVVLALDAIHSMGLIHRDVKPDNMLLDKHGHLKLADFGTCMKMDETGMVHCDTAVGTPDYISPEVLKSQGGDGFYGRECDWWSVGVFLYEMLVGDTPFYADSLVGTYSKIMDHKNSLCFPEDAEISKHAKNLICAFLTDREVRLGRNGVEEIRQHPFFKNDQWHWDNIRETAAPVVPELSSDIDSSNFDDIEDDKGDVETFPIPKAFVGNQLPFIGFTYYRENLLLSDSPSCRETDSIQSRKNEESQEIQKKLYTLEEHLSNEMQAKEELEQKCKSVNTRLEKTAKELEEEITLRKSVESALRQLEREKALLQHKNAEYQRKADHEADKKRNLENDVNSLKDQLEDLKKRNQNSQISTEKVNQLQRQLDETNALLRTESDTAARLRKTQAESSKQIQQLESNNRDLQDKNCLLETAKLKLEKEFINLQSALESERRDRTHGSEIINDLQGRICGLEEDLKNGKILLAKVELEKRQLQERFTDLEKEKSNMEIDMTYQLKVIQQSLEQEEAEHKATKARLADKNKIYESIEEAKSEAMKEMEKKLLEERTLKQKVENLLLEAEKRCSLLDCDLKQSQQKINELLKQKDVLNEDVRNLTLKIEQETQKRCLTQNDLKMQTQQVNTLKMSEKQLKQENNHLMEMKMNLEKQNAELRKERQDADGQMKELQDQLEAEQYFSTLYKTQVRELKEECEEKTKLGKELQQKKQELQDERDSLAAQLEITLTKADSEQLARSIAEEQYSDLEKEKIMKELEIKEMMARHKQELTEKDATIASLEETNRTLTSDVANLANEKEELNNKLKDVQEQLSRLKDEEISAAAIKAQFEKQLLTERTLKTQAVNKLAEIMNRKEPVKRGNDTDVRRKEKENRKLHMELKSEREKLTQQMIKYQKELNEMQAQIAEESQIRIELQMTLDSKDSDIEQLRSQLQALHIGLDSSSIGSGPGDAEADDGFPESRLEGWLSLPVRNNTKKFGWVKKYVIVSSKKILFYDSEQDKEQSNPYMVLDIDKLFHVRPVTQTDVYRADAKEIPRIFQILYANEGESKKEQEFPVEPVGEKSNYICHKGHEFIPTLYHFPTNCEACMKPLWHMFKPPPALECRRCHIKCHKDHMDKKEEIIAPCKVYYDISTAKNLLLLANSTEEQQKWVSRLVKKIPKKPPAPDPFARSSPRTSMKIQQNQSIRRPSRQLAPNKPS

With `O=C(Nc1cnn(-c2csc(C(=O)NC3COC3)c2)c1)Nc1ccccc1Cl` [Compound 17, 4-(4-(3-(2-chlorophenyl)ureido)-1H-pyrazol-1-yl)-N-(oxetan-3-yl)thiophene-2-carboxamide] the remaining activity at 5 µM [1] was 99.2%, the remaining activity at 5 µM [2] was 100% and the remaining activity at 5 µM [3] was 94.3%. The remaining activity at 5 µM [4] was 97.8%, the remaining activity at 5 µM [5] was 98.7% and the remaining activity at 5 µM [6] was 97%. The remaining activity at 5 µM [7] was 96.8%, the remaining activity at 5 µM [8] was 95.1% and the remaining activity at 5 µM [9] was 114%. The remaining activity at 5 µM [10] was 99.8% and the remaining activity at 5 µM [11] was 96.3%.

In the case of `Cc1sc(C(=O)NC2COC2)cc1-n1cc(NC(=O)Nc2c(F)cccc2Cl)cn1` [Compound 27, 4-(4-(3-(2-chloro-6-fluorophenyl)ureido)-1H-pyrazol-1-yl)-5-methyl-N-(oxetan-3-yl)thiophene-2-carboxamide], the remaining activity at 10 µM ([1]; 10 uM) is reported as 67.2%, the remaining activity at 10 µM ([2]; 10 uM) is reported as 93.6% and the remaining activity at 10 µM ([3]; 10 uM) is reported as 94.1%. It also gave a remaining activity at 10 µM ([4]; 10 uM) of 137%, a remaining activity at 10 µM ([5]; 10 uM) of 72.2% and a remaining activity at 10 µM ([6]; 10 uM) of 104%. For the same compound, the remaining activity at 10 µM ([7]; 10 uM) was 113%, the remaining activity at 10 µM ([8]; 10 uM) was 87.5% and the remaining activity at 10 µM ([9]; 10 uM) was 98.5%. It also gave a remaining activity at 10 µM ([10]; 10 uM) of 111% and a remaining activity at 10 µM ([11]; 10 uM) of 96.1%.

`O=C(Nc1cnn(-c2csc(C(=O)NC3COC3)c2)c1)Nc1c(F)cccc1Cl` [Compound 25, 4-(4-(3-(2-chloro-6-fluorophenyl)ureido)-1H-pyrazol-1-yl)-N-(oxetan-3-yl)thiophene-2-carboxamide] showed a remaining activity at 5 µM [1] of 84.2%, a remaining activity at 5 µM [2] of 107% and a remaining activity at 5 µM [3] of 95.8%. For the same compound, the remaining activity at 5 µM [4] was 92%, the remaining activity at 5 µM [5] was 107% and the remaining activity at 5 µM [6] was 95.5%. For the same compound, the remaining activity at 5 µM [7] was 94%, the remaining activity at 5 µM [8] was 88.5% and the remaining activity at 5 µM [9] was 98.7%. It also gave a remaining activity at 5 µM [10] of 96.6% and a remaining activity at 5 µM [11] of 99.7%.

Source: patent US20240246942A1, “KINASE INHIBITORS FOR THE TREATMENT OF NEURODEGENERATIVE DISEASES” (priority 2020, published 2024)
